Data reported in patent US20060069132A1, “Azolecarboxamide herbicides” (priority 2004, published 2006).

Assays:
[1] = tested on: soybean; assay: Test C pre-/postemergence herbicide test; assay type: in vivo, Glycine max; details: for Soybean plant response rating: 500 g ai/ha
Method in brief: (§1)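 Seeds were planted and sprayed preemergence with test chemicals in a non-phytotoxic solvent mixture containing surfactant; postemergence treatments went onto plants 2 to 18 cm tall (1- to 4-leaf stage). After 12 to 14 days in a greenhouse, injury was rated visually against untreated controls on a 0–100 scale.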

[2] = tested on: barnyardgrass; assay: Test A pre-/postemergence herbicide test; assay type: in vivo, Echinochloa crus-galli
Method in brief: (§2)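 Seeds sown in sandy loam received a preemergence directed soil spray of compound in non-phytotoxic solvent with surfactant; postemergence plants (2–10 cm, one- to two-leaf stage) were sprayed to runoff at the same time. After ~10 days in greenhouse, injury was rated visually versus untreated controls (0 = no effect, 100 = complete control).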

[3] = tested on: eastern black nightshade; assay: Test C pre-/postemergence herbicide test; assay type: in vivo, Solanum ptycanthum; details: for Nightshade plant response rating: Preemergence, 500 g ai/ha, scale 0 to 100, 0 no effect, 100 complete control
Method in brief: as §1

[4] = tested on: large crabgrass; assay: Test A pre-/postemergence herbicide test; assay type: in vivo, Digitaria sanguinalis
Method in brief: as §2

[5] = tested on: cocklebur; assay: Test C pre-/postemergence herbicide test; assay type: in vivo, Xanthium strumarium; details: for Cocklebur plant response rating: 500 g ai/ha
Method in brief: as §1

[6] = tested on: velvetleaf; assay: Test B pre-/postemergence herbicide test; assay type: in vivo, Abutilon theophrasti
Method in brief: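 Test chemicals in a non-phytotoxic solvent mixture with surfactant were applied preemergence to seeded species and postemergence to plants 2-18 cm tall (1- to 4-leaf stage); rice and barnyardgrass were also tested in a flooded paddy at the 2-leaf stage. Visual rating versus controls after 13-15 days in greenhouse, scale 0 (no effect) to 100 (complete control).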

[7] = tested on: johnsongrass; assay: Test C pre-/postemergence herbicide test; assay type: in vivo, Sorghum halepense; details: for Johnsongrass plant response rating: 500 g ai/ha
Method in brief: as §1

[8] = tested on: redroot pigweed; assay: Test A pre-/postemergence herbicide test; assay type: in vivo, Amaranthus retroflexus
Method in brief: as §2

[9] = tested on: bermudagrass; assay: Test C pre-/postemergence herbicide test; assay type: in vivo, Cynodon dactylon
Method in brief: as §1

[10] = 125 g ai/ha, scale 0 (no effect) to 100 (complete control), visual, 12 to 14 days, preemergence
[11] = 250 g ai/ha, scale 0 to 100 (0 no effect, 100 complete control), visual, 12 to 14 days, preemergence
[12] = Postemergence, 250 g ai/ha, scale 0 to 100, 0 no effect, 100 complete control
[13] = Preemergence, scale 0 to 100, 0 no effect, 100 complete control
[14] = postemergence, 62 g ai/ha, scale 0 to 100
[15] = Postemergence, 500 g ai/ha, 0 to 100 scale, 0 no effect, 100 complete control
[16] = Postemergence, 2000 g ai/ha, 0 to 100 scale, 0 no effect, 100 complete control
[17] = Preemergence, 500 g ai/ha, visual rating, 0 to 100 scale (0 no effect, 100 complete control)
[18] = Preemergence, 2000 g ai/ha, 0 to 100 scale, 0 no effect, 100 complete control
[19] = Postemergence, 125 g ai/ha, scale 0 to 100, 0 no effect, 100 complete control
[20] = postemergence, 125 g ai/ha, visual rating, scale 0 (no effect) to 100 (complete control)
[21] = Preemergence, 500 g ai/ha, scale 0 to 100, 0 no effect, 100 complete control
[22] = 62 g ai/ha, preemergence, scale 0 to 100
[23] = 250 g ai/ha, scale 0-100, preemergence
[24] = Preemergence, 2000 g ai/ha, visual rating, 0 to 100 scale (0 no effect, 100 complete control)
[25] = preemergence, 500 g ai/ha, visual injury, 0 to 100 scale (0 no effect, 100 complete control)

Structure (SMILES): CCNC(=O)c1cc(NC(=O)c2cc(C(C)(C)C)nn2CC)ccc1F [Compound 58]
- Plant response rating (0 = no effect, 100 = complete control), Soybean ([1]; 62 g ai/ha, preemergence): 0
- Plant response rating, Soybean [1, 10]: 5
- Plant response rating, Soybean [1, 11]: 25
- Soybean plant response rating ([1]; Postemergence, scale 0 to 100): 90
- Plant response rating, Soybean [1, 12]: 80
- Soybean plant response rating [1, 13]: 40
- Plant response rating, Soybean [1, 14]: 15
- Plant response rating, Barnyardgrass [2, 15]: 70
- Plant response rating, Barnyardgrass [2, 16]: 80
- Barnyardgrass plant response rating [2, 17]: 65
- Barnyardgrass plant response rating [2, 18]: 75
- Plant response rating (0 = no effect, 100 = complete control), Nightshade ([3]; 62 g ai/ha, preemergence): 95
- Plant response rating, Nightshade [3, 10]: 100
- Plant response rating, Nightshade [3, 11]: 100
- Nightshade plant response rating [3]: 100
- Plant response rating, Crabgrass, Large [4, 15]: 40
- Plant response rating, Crabgrass, Large [4, 16]: 75
- Crabgrass, Large plant response rating [4, 17]: 70
- Crabgrass, Large plant response rating [4, 18]: 95
- Plant response rating (0 = no effect, 100 = complete control), Cocklebur ([5]; 62 g ai/ha, preemergence): 0
- Plant response rating, Cocklebur [5, 10]: 5
- Plant response rating, Cocklebur [5, 11]: 10
- Cocklebur plant response rating ([5]; Postemergence, scale 0 to 100): 50
- Plant response rating, Cocklebur [5, 19]: 20
- Plant response rating, Cocklebur [5, 12]: 20
- Cocklebur plant response rating [5, 13]: 30
- Plant response rating, Cocklebur [5, 14]: 15
- Plant response rating, Velvetleaf ([6]; Postemergence, 500 g ai/ha, visual rating after 13 to 15 days, scale 0 (no effect) to 100 (complete control)): 70
- Velvetleaf plant response rating ([6]; Preemergence, 500 g ai/ha, scale 0 to 100): 100
- Velvetleaf plant response rating [6, 20]: 50
- Plant response rating, Velvetleaf ([6]; preemergence, 125 g ai/ha, 0 to 100 scale, 0 is no effect, 100 is complete control): 60
- Plant response rating (0 = no effect, 100 = complete control), Johnsongrass ([7]; 62 g ai/ha, preemergence): 70
- Plant response rating, Johnsongrass [7, 10]: 80
- Plant response rating, Johnsongrass [7, 11]: 90
- Johnsongrass plant response rating ([7]; Postemergence, scale 0 to 100): 10
- Plant response rating, Johnsongrass [7, 19]: 0
- Plant response rating, Johnsongrass [7, 12]: 5
- Johnsongrass plant response rating [7, 13]: 100
- Plant response rating, Johnsongrass [7, 14]: 0
- Plant response rating, Pigweed [8, 15]: 70
- Plant response rating, Pigweed [8, 16]: 90
- Pigweed plant response rating [8, 17]: 100
- Pigweed plant response rating [8, 18]: 100
- Plant response rating (0 = no effect, 100 = complete control), Bermudagrass ([9]; 62 g ai/ha, preemergence): 90
- Plant response rating, Bermudagrass [9, 10]: 100
- Plant response rating, Bermudagrass [9, 11]: 100
- Bermudagrass plant response rating ([9]; Postemergence, 500 g ai/ha, scale 0 to 100): 10
- Plant response rating, Bermudagrass [9, 19]: 5
- Bermudagrass plant response rating ([9]; Postemergence, 250 g ai/ha, scale 0 to 100): 10
- Bermudagrass plant response rating [9, 21]: 100
- Plant response rating, Bermudagrass [9, 14]: 0

Structure (SMILES): CCNC(=O)c1cccc(NC(=O)c2sc(C(C)(C)C)nc2C)c1 [Compound 198]
- Plant response rating, Soybean [1, 22]: 0
- Plant response rating, Soybean [1, 10]: 0
- Plant response rating, Soybean [1, 23]: 0
- Soybean plant response rating [1, 13]: 25
- Barnyardgrass plant response rating [2, 15]: 45
- Plant response rating, Barnyardgrass [2, 16]: 80
- Barnyardgrass plant response rating [2, 24]: 90
- Barnyardgrass plant response rating [2, 25]: 55
- Plant response rating, Nightshade [3, 22]: 90
- Plant response rating, Nightshade [3, 10]: 95
- Plant response rating, Nightshade [3, 23]: 100
- Nightshade plant response rating [3]: 100
- Crabgrass, Large plant response rating [4, 15]: 20
- Plant response rating, Crabgrass, Large [4, 16]: 65
- Crabgrass, Large plant response rating [4, 24]: 90
- Crabgrass, Large plant response rating [4, 25]: 80
- Plant response rating, Cocklebur [5, 22]: 0
- Plant response rating, Cocklebur [5, 10]: 0
- Plant response rating, Cocklebur [5, 23]: 0
- Cocklebur plant response rating [5, 13]: 10
- Velvetleaf plant response rating (0 to 100 scale) ([6]; 125 g ai/ha, 0 = no effect, 100 = complete control, preemergence): 0
- Plant response rating, Velvetleaf ([6]; 500 g ai/ha, visual rating 0-100, 0 no effect, 100 complete control, preemergence): 60
- Velvetleaf plant response rating [6, 20]: 20
- Velvetleaf plant response rating ([6]; postemergence, 500 g ai/ha, visual rating, scale 0 (no effect) to 100 (complete control)): 20
- Plant response rating, Johnsongrass [7, 22]: 0
- Plant response rating, Johnsongrass [7, 10]: 30
- Plant response rating, Johnsongrass [7, 23]: 60
- Johnsongrass plant response rating [7, 13]: 95
- Pigweed plant response rating [8, 15]: 55
- Plant response rating, Pigweed [8, 16]: 75
- Pigweed plant response rating [8, 24]: 100
- Pigweed plant response rating [8, 25]: 95
- Plant response rating, Bermudagrass ([9]; 62 g ai/ha, preemergence, scale 0 to 100, 0 no effect, 100 complete control): 60
- Plant response rating, Bermudagrass [9, 10]: 85
- Plant response rating, Bermudagrass [9, 23]: 100
- Bermudagrass plant response rating [9, 21]: 100
